SMILES strings stand for the structures.

The test system of one test is mice. As to the kind of experiment: Loss of righting after intravenous administration (mouse). Type of test: in vivo. The conditions noted are these: 20 min, intravenous (lateral tail vein), 20 minute observation, acid addition salts, values corrected for the salts. Here is the method:
(§1) The acid addition salts of the compounds were dissolved in sterile water for injection, U.S.P, to form a solution, the concentration of which varied from 0.001 mg/ml to 5 mg/ml. Mice or rats were used for the tests. The test solution was administered to the test animal intravenously through the lateral tail vein. The animals were observed over a 20 minute period for loss of righting which is defined as the animal remaining in a supine position for 30 seconds. Five to ten mice and three to six rats were utilized for each dosage. The ED50 was calculated for each test compound either by linear regression or by a standard computer program utilizing the method of Litchfield and Wilcoxon, J. Pharmacol. Exp. Ther., vol. 96, p. 99 (1949). Since different animals were used, the ED50 values in Table 1 are those determined in the mouse except those values marked with an asterisk which were determined in the rat.
Turning to `C=C(C)c1cc(C(=O)OCC)nn1C(C)c1ccccn1` (stereo not drawn), the ED50 is 8.9 mg/kg.

With `CCOC(=O)c1cc(-c2nccs2)nn1C(C)c1ccccn1` (stereo not drawn), the ED50 was 3.2 mg/kg.

For `CCOC(=O)c1cc(-c2cccs2)n(C(C)c2ccccn2)n1` (stereo not drawn), the ED50 was found to be 17.6 mg/kg.

As for `CCOC(=O)c1cc(-c2ccsc2)n(C(C)c2ccccn2)n1` (stereo not drawn), the ED50 stood at 17.6 mg/kg.

As for `CCOC(=O)c1cc(-c2ccco2)nn1C(C)c1ccccn1` (stereo not drawn), the ED50 was found to be 1.3 mg/kg.

As for `CCOC(=O)c1cc(-c2ccco2)nn1Cc1ccccn1`, the ED50 was 8.9 mg/kg.

Regarding `CCOC(=O)c1cc(-c2ccco2)n(Cc2ccccn2)n1`, the ED50 amounted to 17.6 mg/kg.

For `CCOC(=O)c1cc(-c2cccs2)n(Cc2ccccn2)n1`, the ED50 is 14.3 mg/kg.

In the case of `CCOC(=O)c1cc(-c2cccs2)nn1Cc1ccccn1`, the ED50 was 28.3 mg/kg.

Regarding `CCOC(=O)c1cc(-c2cnco2)nn1C(C)c1ccccn1` (stereo not drawn), the ED50 was 2.8 mg/kg.

Turning to `CCOC(=O)c1cc(-c2nnco2)nn1C(C)c1ccccn1` (stereo not drawn), the ED50 turned out to be 9 mg/kg.

Consider `CCOC(=O)c1cc(-c2ccccn2)nn1C(C)c1ccccn1` (stereo not drawn), for which the ED50 turned out to be 3.5 mg/kg.

With `CCOC(=O)c1cc(-c2ccccn2)n(C(C)c2ccccn2)n1` (stereo not drawn), the ED50 worked out at 17.5 mg/kg.

On to `CCOC(=O)c1cc(-c2ccncc2)nn1C(C)c1ccccn1` (stereo not drawn), for which the ED50 is 12 mg/kg.

In the case of `CCOC(=O)c1cc(-c2cccnc2)nn1C(C)c1ccccn1` (stereo not drawn), the ED50 is 2.3 mg/kg.

Consider `CCOC(=O)c1nc(-c2cc(C(=O)OCC)n(C(C)c3ccccn3)n2)cs1` (stereo not drawn), for which the ED50 came to 13.6 mg/kg.

Regarding `CCOC(=O)c1cc(-c2csc(C(=O)OCC)n2)n(C(C)c2ccccn2)n1` (stereo not drawn), the ED50 amounted to 31.6 mg/kg.

Regarding `CCOC(=O)c1cc(-c2csc(-c3ccncc3)n2)nn1C(C)c1ccccn1` (stereo not drawn), the ED50 was determined as 5.7 mg/kg.

For `CCOC(=O)c1cc(-c2csc(-c3ccncc3)n2)n(C(C)c2ccccn2)n1` (stereo not drawn), the median effective dose (ED50) stood at 51.4 mg/kg.

As for `CCOC(=O)c1cc(-c2cn3ccccc3n2)nn1C(C)c1ccccn1` (stereo not drawn), the ED50 was 14.3 mg/kg.

For `CCOC(=O)c1cc(-c2cocn2)nn1C(C)c1ccccn1` (stereo not drawn), the ED50 is 7.7 mg/kg.

As to `CCOC(=O)c1cc(-c2cocn2)n(C(C)c2ccccn2)n1` (stereo not drawn), the ED50 is 13.4 mg/kg.

For the molecule `CCOC(=O)c1cc(-c2ocnc2C)nn1C(C)c1ccccn1` (stereo not drawn), the ED50 amounted to 4.7 mg/kg.

For the molecule `CCOC(=O)c1cc(-c2cc(C)on2)nn1C(C)c1ccccn1` (stereo not drawn), the median effective dose (ED50) was 9.9 mg/kg.

Turning to `CCOC(=O)c1cc(-c2cc(C)on2)n(C(C)c2ccccn2)n1` (stereo not drawn), the ED50 was 23.7 mg/kg.

Take `CCOC(=O)c1cc(-c2cccn2C)nn1C(C)c1ccccn1` (stereo not drawn): the ED50 worked out at 0.95 mg/kg.

In the case of `CCOC(=O)c1cc(-c2cccn2C)n(C(C)c2ccccn2)n1` (stereo not drawn), the ED50 amounted to 6.2 mg/kg.

`CCOC(=O)c1cc(CC)nn1C(C)c1ccccn1` (stereo not drawn) [CH3 / CH2 CH3 / CO2 Et / N / CH]: the ED50 was determined as 9.4 mg/kg.

Turning to `CC(=O)OCc1cc(C)n(C(C)c2ccccn2)n1` (stereo not drawn) [CH3 / CH2 OCOCH3 / CH3 / N / CH], the ED50 turned out to be 61.1 mg/kg.

For the molecule `CCOC(=O)c1cc(C)nn1C(C)c1cccnc1` (stereo not drawn) [CH3 / CH3 / CO2 Et / CH / N], the ED50 amounted to 21.5 mg/kg.

With `CCOC(=O)c1cc(C)nn1C(C)c1ccccn1` (stereo not drawn) [CH3 / CH3 / CO2 Et / N / CH], the ED50 turned out to be 9 mg/kg.

Turning to `CCOC(=O)c1cc(C(C)=O)nn1C(C)c1ccccn1` (stereo not drawn) [CH3 / CH3 CO / CO2 Et / N / CH], the ED50 came out at 4 mg/kg.

For `CCOC(=O)c1cc(C=O)nn1C(C)c1ccccn1` (stereo not drawn) [CH3 / CHO / CO2 Et / N / CH, 3-formyl-1-(1-(2-pyridinyl)ethyl)pyrazole-5-carboxylic acid ethyl ester], the ED50 stood at 9.9 mg/kg.

Turning to `CCOC(=O)c1cc(CC)n(C(C)c2ccccn2)n1` (stereo not drawn) [CH3 / CO2 Et / CH2 CH3 / N / CH], the ED50 amounted to 9.4 mg/kg.

As for `CCOC(=O)c1cc(COC)n(C(C)c2ccccn2)n1` (stereo not drawn) [CH3 / CO2 Et / CH2 OCH3 / N / CH], the ED50 stood at 19.1 mg/kg.

On to `CCOC(=O)c1cc(COC(C)=O)n(C(C)c2ccccn2)n1` (stereo not drawn) [CH3 / CO2 Et / CH2 OCOCH3 / N / CH], for which the ED50 turned out to be 28.3 mg/kg.

Regarding `CCOC(=O)c1cc(C)n(C(C)c2cccnc2)n1` (stereo not drawn) [CH3 / CO2 Et / CH3 / CH / N], the ED50 was 26.3 mg/kg.

Turning to `CCOC(=O)c1cc(C)n(C(C)c2ccccn2)n1` (stereo not drawn) [CH3 / CO2 Et / CH3 / N / CH], the ED50 turned out to be 6.9 mg/kg.

Consider `CCOC(=O)c1cc(C(C)=O)n(C(C)c2ccccn2)n1` (stereo not drawn) [CH3 / CO2 Et / CH3 CO / N / CH], for which the ED50 stood at 19.7 mg/kg.

For `CCOC(=O)c1cc(C(=O)OCC)n(C(C)c2cccnc2)n1` (stereo not drawn) [CH3 / CO2 Et / CO2 Et / CH / N], the ED50 came to 8.6 mg/kg.

Regarding `CCOC(=O)c1cc(C(=O)OCC)n(C(C)c2ccccn2)n1` (stereo not drawn) [CH3 / CO2 Et / CO2 Et / N / CH, 1-[1-(2-pyridyl)ethyl]pyrazole-3,5-dicarboxylic acid diethyl ester], the ED50 is 1.4 mg/kg.

Regarding `CCOC(=O)c1ccn(C(C)c2ccccn2)n1` (stereo not drawn) [CH3 / CO2 Et / H / N / CH], the ED50 turned out to be 34.2 mg/kg.

On to `CCOC(=O)c1cc(O)n(C(C)c2ccccn2)n1` (stereo not drawn) [CH3 / CO2 Et / OH / N / CH], for which the ED50 is 31 mg/kg.

Consider `CCOC(=O)c1ccnn1C(C)c1ccccn1` (stereo not drawn) [CH3 / H / CO2 Et / N / CH], for which the ED50 turned out to be 31 mg/kg.

Take `CCOC(=O)c1cc(C)nn1Cc1cccnc1` [H / CH3 / CO2 Et / CH / N]: the ED50 was found to be 25.1 mg/kg.

Regarding `CCOC(=O)c1cc(C)nn1Cc1ccccn1` [H / CH3 / CO2 Et / N / CH], the ED50 is 17.4 mg/kg.

Take `CCOC(=O)c1cc(C)n(Cc2ccccn2)n1` [H / CO2 Et / CH3 / N / CH]: the ED50 is 37.7 mg/kg.

Take `CCOC(=O)c1cc(C(=O)OCC)n(Cc2cccnc2)n1` [H / CO2 Et / CO2 Et / CH / N]: the ED50 amounted to 10.4 mg/kg.

In the case of `CCOC(=O)c1cc(C(=O)OCC)n(Cc2ccccn2)n1` [H / CO2 Et / CO2 Et / N / CH], the ED50 was found to be 6.9 mg/kg.

Consider `CCOC(=O)c1ccn(Cc2ccccn2)n1` [H / CO2 Et / H / N / CH], for which the ED50 worked out at 43.9 mg/kg.

In a further test the test system is rats. As to the kind of experiment: Loss of righting after intravenous administration (rat). The conditions noted are these: 20 min; rat (asterisk), intravenous (lateral tail vein), 20 minute observation; acid addition salts, values corrected for the salts. Type of test: in vivo. Here is the method: as §1
As for `CCOC(=O)c1cc(-c2nnco2)n(C(C)c2ccccn2)n1` (stereo not drawn), the ED50 is 7.2 mg/kg.

As for `CCOC(=O)c1cc(-c2csc(-c3cccnc3)n2)nn1C(C)c1ccccn1` (stereo not drawn), the ED50 came to 1.1 mg/kg.

Consider `CCOC(=O)c1cc(-c2coc(C)n2)nn1C(C)c1ccccn1` (stereo not drawn), for which the ED50 is 1.2 mg/kg.

On to `CCOC(=O)c1cc(-c2coc(C)n2)n(C(C)c2ccccn2)n1` (stereo not drawn), for which the median effective dose (ED50) is 8.8 mg/kg.

Take `CCOC(=O)c1cc(-c2ocnc2C)n(C(C)c2ccccn2)n1` (stereo not drawn): the ED50 is 23.2 mg/kg.

Consider `CCOC(=O)c1cc(-c2cc(C)no2)nn1C(C)c1ccccn1` (stereo not drawn), for which the ED50 turned out to be 3.8 mg/kg.

As for `CCOC(=O)c1cc(-c2cc(C)no2)n(C(C)c2ccccn2)n1` (stereo not drawn), the ED50 was found to be 7.2 mg/kg.

In the case of `CCOC(=O)c1cc(-c2ncc(C)o2)nn1C(C)c1ccccn1` (stereo not drawn), the ED50 stood at 1.1 mg/kg.

As to `CCOC(=O)c1cc(-c2ncc(C)o2)n(C(C)c2ccccn2)n1` (stereo not drawn), the ED50 amounted to 0.85 mg/kg.

On to `CCOC(=O)c1cc(-c2ncco2)n(C(C)c2ccccn2)n1` (stereo not drawn), for which the ED50 was 0.85 mg/kg.

Take `CCOC(=O)c1cc(-c2ccn(C)c2)n(C(C)c2ccccn2)n1` (stereo not drawn): the ED50 was determined as 4.2 mg/kg.

On to `CCOC(=O)c1cc(-c2nc(C)no2)nn1C(C)c1ccccn1` (stereo not drawn), for which the ED50 was 0.79 mg/kg.

As for `CCOC(=O)c1cc(-c2cccnc2)nn1Cc1ccccn1`, the ED50 came out at 7 mg/kg.

In the case of `CCOC(=O)c1cc(-c2cccnc2)n(Cc2ccccn2)n1`, the ED50 stood at 17.7 mg/kg.

Regarding `CCOC(=O)c1cc(-c2cccc(C)n2)nn1C(C)c1ccccn1` (stereo not drawn), the ED50 turned out to be 1.6 mg/kg.

Consider `CCOC(=O)c1cc(-c2ccccn2)nn1Cc1ccccn1`, for which the ED50 worked out at 5.1 mg/kg.

Take `CCOC(=O)c1cc(-c2ccccc2N)nn1C(C)c1ccccn1` (stereo not drawn): the ED50 stood at 0.81 mg/kg.

Regarding `CCOC(=O)c1cc(-c2cccc(N)c2)nn1C(C)c1ccccn1` (stereo not drawn), the ED50 stood at 0.53 mg/kg.

Regarding `CCOC(=O)c1cc(-c2ccc(N)cc2)nn1C(C)c1ccccn1` (stereo not drawn), the ED50 was determined as 2.7 mg/kg.

In the case of `CCOC(=O)c1cc(-c2cccc(N(C)C)c2)nn1C(C)c1ccccn1` (stereo not drawn), the ED50 stood at 1.5 mg/kg.

Regarding `CCOC(=O)c1cc(-c2ccccc2)nn1C(C)c1ccccn1` (stereo not drawn), the ED50 came to 2.8 mg/kg.

For `CCOC(=O)c1cc(-c2ccccn2)nn1Cc1cccnc1`, the ED50 is 30.5 mg/kg.

In the case of `CCOC(=O)c1cc(-c2cnccn2)nn1C(C)c1ccccn1` (stereo not drawn), the ED50 turned out to be 1.5 mg/kg.

For `CCOC(=O)C(=O)c1cc(C(=O)OCC)n(C(C)c2ccccn2)n1` (stereo not drawn) [CH3 / COCO2 Et / CO2 Et / N / CH], the ED50 worked out at 2.86 mg/kg.

Take `CCCNC(=O)c1cc(C(=O)OCC)n(C(C)c2ccccn2)n1` (stereo not drawn) [CH3 / CONHC3 H7 / CO2 Et / N / CH]: the ED50 was 1.8 mg/kg.

For the origin of these results see patent US5470862A, “Substituted pyrazolyl compounds and methods employing such compounds” (Ohmeda Pharmaceutical Products Division Inc., priority 1995, dated 1995).
